The source of these data is ChEMBL document CHEMBL1127901, “Conformationally constrained analogues of dag .8. Changes in PK-C binding affinity produced by isosteric groups of the 3-O-acyl function in 2-deoxy-L-ribonolactones” (Bioorg Med Chem Lett, 1994).

For experiment [1], the target named is Protein kinase C (PKC). In words: Inhibition of [3H]PDBU binding to protein kinase C mixture. Format: protein assay, Rattus norvegicus.
The target of experiment [2] is Protein kinase C alpha type (Rattus norvegicus, UniProt P05696). Briefly: Inhibition of [3H]PDBU binding to Protein kinase C alpha.
Experiment [3] deals with Protein kinase C (PKC). In words: Inhibition of [3H]-PDBU binding to protein kinase C mixture. Format: protein assay, Rattus norvegicus.

A word on the Ki: it is a measure of affinity in units of concentration, obtained from inhibition or displacement. Consider `CCCCCCCCCCCCCC(=O)O[C@@H]1CC(=O)O[C@H]1CO`, for which the Ki on Protein kinase C (PKC) [1] turned out to be 2.5 µM; in experiment [2], 1.5 µM. Turning to `CCCCCCCCCCCCCC(=O)O[C@@H]1CC(=O)O[C@H]1CCO`, the Ki in experiment [2] was determined as 0.88 µM. For `CCCCCCCCCCCCCCOC(=O)[C@@H]1CC(=O)O[C@H]1CO`, the Ki on Protein kinase C (PKC) [3] amounted to 8.07 µM.

With `CCCCCCCCCCCCCCC(=O)[C@@H]1CC(=O)O[C@H]1CO`, at Protein kinase C (PKC) [3], the Ki was 50.75 µM.

In experiment [2], `CCCCCCCCCCCCCCOC(=O)C[C@@H]1CC(=O)O[C@H]1CO` yielded a Ki of 1.47 µM. The same measure, in the same setting: to `CCCCCCCCCCCCCCOC(=O)C[C@@H]1CC(=O)O[C@H]1CCO` belongs 18.6 µM; to `CCCCCCCCCCCCCC(=O)OC[C@@H]1CC(=O)O[C@H]1CO`, 3.1 µM. With `CCCCCCCCCCCCCCO[C@@H]1CC(=O)O[C@H]1CO`, the inhibitory constant (Ki) on Protein kinase C (PKC) [3] was 3.31 µM.
